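Assay format: 96-well plates, 48-hour exposure. TGI: concentration producing complete growth inhibition.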
Tests used:
Experiment in all cases: growth of human tumour cells (NCI), 48 h
[1] = system: 786-0 renal
[2] = system: A498 renal
[3] = system: A549 NSCLC
[4] = system: ACHN renal
[5] = system: CAKI-1 renal
[6] = system: CCRF-CEM leukemia
[7] = system: COLO 205 colon
[8] = system: DU-145 prostate
[9] = system: EKVX NSCLC
[10] = system: HCC-2998 colon
[11] = system: HCT-116 colon
[12] = system: HCT-15 colon
[13] = system: HL-60(TB) leukemia
[14] = system: HOP-62 NSCLC
[15] = system: HOP-92 NSCLC
[16] = system: HS 578T breast
[17] = system: HT29 colon
[18] = system: IGROV1 ovarian
[19] = system: K-562 leukemia
[20] = system: KM12 colon
[21] = system: LOX IMVI melanoma
[22] = system: M14 melanoma
[23] = system: MALME-3M melanoma
[24] = system: MCF7 breast
[25] = system: MDA-MB-231 breast
[26] = system: MDA-MB-435
[27] = system: MDA-N
[28] = system: MOLT-4 leukemia
[29] = system: NCI-H226 lung
[30] = system: NCI-H23 lung
[31] = system: NCI-H460 lung
[32] = system: NCI-H522 lung
[33] = system: NCI/ADR-RES ovarian
[34] = system: OVCAR-3 ovarian
[35] = system: OVCAR-4 ovarian
[36] = system: OVCAR-5 ovarian
[37] = system: OVCAR-8 ovarian
[38] = system: PC-3 prostate
[39] = system: RPMI-8226 leukemia
[40] = system: RXF 393 renal
[41] = system: SF-268 CNS
[42] = system: SF-295 CNS
[43] = system: SF-539 CNS
[44] = system: SK-MEL-2 melanoma
[45] = system: SK-MEL-28 melanoma
[46] = system: SK-MEL-5 melanoma
[47] = system: SK-OV-3 ovarian
[48] = system: SN12C renal
[49] = system: SNB-19 CNS
[50] = system: SNB-75 CNS
[51] = system: SW-620 colon
[52] = system: T-47D breast
[53] = system: TK-10 renal
[54] = system: U251 CNS
[55] = system: UACC-257 melanoma
[56] = system: UO-31 renal
[57] = system: SR leukemia
[58] = system: UACC-62 melanoma

`CC(C)(C)C(=O)C(C(=O)c1ccccc1)C(=O)C(C)(C)C` gave a TGI [1] greater than 100 µM, a TGI [2] greater than 100 µM and a TGI [3] greater than 100 µM. It also gave a TGI [4] greater than 100 µM, a TGI [5] greater than 100 µM and a TGI [6] greater than 100 µM. The TGI [7] was greater than 100 µM, the TGI [8] was greater than 100 µM and the TGI [9] was greater than 100 µM. It also gave a TGI [10] greater than 100 µM, a TGI [11] greater than 100 µM and a TGI [12] greater than 100 µM. The TGI [13] was greater than 100 µM, the TGI [14] was greater than 100 µM and the TGI [15] was greater than 100 µM. It also gave a TGI [16] greater than 100 µM, a TGI [17] greater than 100 µM and a TGI [18] greater than 100 µM. For the same molecule, the TGI [19] was greater than 100 µM, the TGI [20] was greater than 100 µM and the TGI [21] was greater than 100 µM. For the same molecule, the TGI [22] was greater than 100 µM, the TGI [23] was greater than 100 µM and the TGI [24] was greater than 100 µM. The TGI [25] was greater than 100 µM, the TGI [26] was greater than 100 µM and the TGI [27] was greater than 100 µM. The TGI [28] was greater than 100 µM, the TGI [29] was greater than 100 µM and the TGI [30] was greater than 100 µM. It also gave a TGI [31] greater than 100 µM, a TGI [32] greater than 100 µM and a TGI [33] greater than 100 µM. The TGI [34] was greater than 100 µM, the TGI [35] was greater than 100 µM and the TGI [36] was greater than 100 µM. For the same molecule, the TGI [37] was greater than 100 µM, the TGI [38] was greater than 100 µM and the TGI [39] was greater than 100 µM. It also gave a TGI [40] greater than 100 µM, a TGI [41] greater than 100 µM and a TGI [42] greater than 100 µM. The TGI [43] was greater than 100 µM, the TGI [44] was greater than 100 µM and the TGI [45] was greater than 100 µM. For the same molecule, the TGI [46] was greater than 100 µM, the TGI [47] was greater than 100 µM and the TGI [48] was greater than 100 µM. For the same molecule, the TGI [49] was greater than 100 µM, the TGI [50] was greater than 100 µM and the TGI [51] was greater than 100 µM. For the same molecule, the TGI [52] was greater than 100 µM, the TGI [53] was greater than 100 µM and the TGI [54] was greater than 100 µM. The TGI [55] was greater than 100 µM and the TGI [56] was greater than 100 µM.

Molecule `COc1ccc(C2(O)C(S(=O)(=O)c3ccc(C)cc3)=Cc3ccc(OC)cc32)cc1` (stereo not given) has a TGI [1] greater than 100 µM, a TGI [2] greater than 100 µM and a TGI [3] greater than 100 µM. It also gave a TGI [4] greater than 100 µM, a TGI [6] greater than 100 µM and a TGI [7] greater than 100 µM. It also gave a TGI [8] greater than 100 µM, a TGI [9] greater than 100 µM and a TGI [10] greater than 100 µM. It also gave a TGI [11] greater than 100 µM, a TGI [12] greater than 100 µM and a TGI [13] greater than 100 µM. For the same molecule, the TGI [14] was 77.2 µM, the TGI [16] was greater than 100 µM and the TGI [17] was greater than 100 µM. For the same molecule, the TGI [18] was greater than 100 µM, the TGI [19] was greater than 100 µM and the TGI [20] was greater than 100 µM. For the same molecule, the TGI [21] was greater than 100 µM, the TGI [24] was greater than 100 µM and the TGI [25] was greater than 100 µM. For the same molecule, the TGI [26] was greater than 100 µM, the TGI [27] was greater than 100 µM and the TGI [28] was greater than 100 µM. It also gave a TGI [29] greater than 100 µM, a TGI [30] greater than 100 µM and a TGI [31] greater than 100 µM. The TGI [32] was greater than 100 µM, the TGI [33] was greater than 100 µM and the TGI [36] was greater than 100 µM. For the same molecule, the TGI [37] was greater than 100 µM, the TGI [38] was greater than 100 µM and the TGI [39] was greater than 100 µM. For the same molecule, the TGI [41] was greater than 100 µM, the TGI [42] was 97.4 µM and the TGI [43] was greater than 100 µM. The TGI [44] was greater than 100 µM, the TGI [45] was greater than 100 µM and the TGI [46] was greater than 100 µM. It also gave a TGI [47] greater than 100 µM, a TGI [48] greater than 100 µM and a TGI [49] greater than 100 µM. It also gave a TGI [50] of 60.1 µM, a TGI [57] greater than 100 µM and a TGI [51] greater than 100 µM. The TGI [52] was greater than 100 µM, the TGI [53] was greater than 100 µM and the TGI [54] was greater than 100 µM. For the same molecule, the TGI [55] was greater than 100 µM.

`CC(=O)c1c2c(cc3c1CC1(Cc4cc5c(cc4C1)CCCC5)C3)CCCC2` gave a TGI [1] greater than 100 µM, a TGI [2] greater than 100 µM and a TGI [3] greater than 100 µM. It also gave a TGI [4] of 38.8 µM, a TGI [7] greater than 100 µM and a TGI [9] greater than 100 µM. The TGI [10] was greater than 100 µM, the TGI [11] was greater than 100 µM and the TGI [12] was greater than 100 µM. It also gave a TGI [13] of 31.4 µM, a TGI [14] greater than 100 µM and a TGI [15] greater than 100 µM. For the same molecule, the TGI [16] was greater than 100 µM, the TGI [17] was greater than 100 µM and the TGI [18] was greater than 100 µM. It also gave a TGI [19] of 29.4 µM, a TGI [20] greater than 100 µM and a TGI [21] greater than 100 µM. It also gave a TGI [22] greater than 100 µM, a TGI [23] greater than 100 µM and a TGI [24] of 56.9 µM. The TGI [25] was greater than 100 µM, the TGI [26] was 53.1 µM and the TGI [27] was 56.5 µM. The TGI [28] was 38.5 µM, the TGI [29] was greater than 100 µM and the TGI [30] was greater than 100 µM. It also gave a TGI [32] greater than 100 µM, a TGI [33] greater than 100 µM and a TGI [34] greater than 100 µM. For the same molecule, the TGI [35] was greater than 100 µM, the TGI [36] was greater than 100 µM and the TGI [37] was greater than 100 µM. It also gave a TGI [38] greater than 100 µM, a TGI [39] of 81.8 µM and a TGI [40] greater than 100 µM. For the same molecule, the TGI [42] was greater than 100 µM, the TGI [43] was greater than 100 µM and the TGI [44] was 51.3 µM. It also gave a TGI [46] of 22.3 µM, a TGI [47] greater than 100 µM and a TGI [48] greater than 100 µM. It also gave a TGI [50] of 72.2 µM, a TGI [57] of 17.5 µM and a TGI [52] greater than 100 µM. For the same molecule, the TGI [53] was greater than 100 µM, the TGI [54] was greater than 100 µM and the TGI [55] was 55.7 µM. It also gave a TGI [58] greater than 100 µM and a TGI [56] greater than 100 µM.

From PubChem BioAssay (NCI)
